Measurements taken from US8580710B2, “Pesticidal active mixtures comprising aminothiazoline compounds” (BASF SE, priority 2008, dated 2013).
Where “and” joins values, the source holds several entries; their conditions need not be identical. Equal values may be shown once.

What was measured:
[1] = test system: green peach aphid (Myzus persicae); experiment: Test B.2: control of green peach aphid through systemic means, artificial diet under membrane; type: in vivo; conditions: 3 days
Excerpt: For evaluating control of green peach aphid (Myzus persicae) through systemic means the test unit consisted of 96-well-microtiter plates containing liquid artificial diet under an artificial membrane.
The compounds or mixtures were formulated using a solution containing 75 wt % water and 25 wt % DMSO. Different concentrations of formulated compounds or mixtures were pipetted into the aphid diet, using a custom built pipetter, at two replications.
(§1) For experimental mixtures in these tests identical volumes of both mixing partners at the desired concentrations respectively, were mixed together.
After application, 5-8 adult aphids were placed on the artificial membrane inside the microtiter plate wells. The aphids were then allowed to suck on the treated aphid diet and incubated at 23±1° C., 50±5% RH for 3 days. Aphid mortality and fecundity was then visually assessed. In all cases, a synergistic control effect according to Colby's equation was observed.

[2] = test system: Mediterranean fruitfly (Ceratitis capitata); experiment: Test B.4: control of Mediterranean fruitfly, insect diet with eggs; type: in vivo; conditions: 5 days
Procedure: For evaluating control of Mediterranean fruitfly (Ceratitis capitata) the test unit consisted of 96-well-microtiter plates containing an insect diet and 50-80 C. capitata eggs.
The compounds or mixtures were formulated using a solution containing 75 wt % water and 25 wt % DMSO. Different concentrations of formulated compounds or mixtures were sprayed onto the insect diet at 5 μl, using a custom built micro atomizer, at two replications.
as §1
(§2) After application, microtiter plates were incubated at 28±1° C., 80±5% RH for 5 days. Egg and larval mortality was visually assessed.

[3] = test system: vetch aphid (Megoura viciae); experiment: Test B.1: control of vetch aphid on broad bean leaf disks, contact or systemic; type: in vivo; conditions: sprayed on leaf disks, 5 days
Procedure: For evaluating control of vetch aphid (Megoura viciae) through contact or systemic means the test unit consisted of 24-well-microtiter plates containing broad bean leaf disks.
The compounds or mixtures were formulated using a solution containing 75 wt % water and 25 wt % DMSO. Different concentrations of formulated compounds or mixtures were sprayed onto the leaf disks at 2.5 μl, using a custom built micro atomizer, at two replications.
as §1
After application, the leaf disks were air-dried and 5-8 adult aphids placed on the leaf disks inside the microtiter plate wells. The aphids were then allowed to suck on the treated leaf disks and incubated at 23±1° C., 50±5% RH (relative humidity) for 5 days. Aphid mortality and fecundity was then visually assessed.

[4] = test system: boll weevil (Anthonomus grandis); experiment: Test B.3: control of boll weevil, insect diet with eggs; type: in vivo; conditions: sprayed on insect diet, 5 days
Procedure: For evaluating control of boll weevil (Anthonomus grandis) the test unit consisted of 24-well-microtiter plates containing an insect diet and 20-30 A. grandis eggs.
The compounds or mixtures were formulated using a solution containing 75 wt % water and 25 wt % DMSO. Different concentrations of formulated compounds or mixtures were sprayed onto the insect diet at 20 μl, using a custom built micro atomizer, at two replications.
as §1
After application, microtiter plates were incubated at 23±1° C., 50±5% RH for 5 days. Egg and larval mortality was visually assessed.

[5] = test system: tobacco budworm (Heliothis virescens); experiment: Test B.5: control of tobacco budworm, insect diet with eggs; type: in vivo; conditions: 5 days
Procedure: For evaluating control of tobacco budworm (Heliothis virescens) the test unit consisted of 96-well-microtiter plates containing an insect diet and 15-25 H. virescens eggs.
The compounds or mixtures were formulated using a solution containing 75 wt % water and 25 wt % DMSO. Different concentrations of formulated compounds or mixtures were sprayed onto the insect diet at 10 μl, using a custom built micro atomizer, at two replications.
as §1, §2

[6] = 0.4 ppm sprayed onto insect diet
[7] = 4 ppm in aphid diet, mortality and fecundity
[8] = 10 ppm sprayed onto insect diet
[9] = 40 ppm sprayed onto insect diet
[10] = 100 ppm sprayed onto insect diet

For N#Cc1nn(-c2c(Cl)cc(C(F)(F)F)cc2Cl)c(N)c1[S+]([O-])C(F)(F)F (stereo not drawn) [fipronil], the “Average Control [%]” value ([1]; 2 ppm in aphid diet) was 50% and the “Average Control [%]” value [2, 6] was 25%.
Cc1cc(C)cc(CC(NC2=NCCS2)c2cccc3c2C(C)(C)C(=O)N3C)c1 (stereo not drawn) showed a melting point of 270 to 272 °C.
With CCOC(=O)OC1=C(c2cc(C)ccc2C)C(=O)N[C@]12CC[C@@H](OC)CC2 [spirotetramat] the “Average Control” value ([3]; 0.8 ppm) was 0%, the “Average Control [%]” value [1, 7] was 0% and the “Average Control [%]” value ([1]; 20 ppm in aphid diet) was 0%.
For abamectin, the “Average Control” value ([3]; 0.08 ppm) was 0%, the “Average Control [%]” value ([1]; 0.016 ppm in aphid diet) was 0% and the “Average Control [%]” value ([1]; 0.08 ppm in aphid diet) was 0%. For the same molecule, the “Average Control” value ([4]; 0.016 ppm) was 25% and the “Average Control [%]” value ([2]; 0.016 ppm sprayed onto insect diet) was 0%.
Cc1cc(C)cc(CC(NC2=NCCS2)c2cccc3c2CCCC3)c1 (stereo not drawn) showed a melting point of 139 to 141 °C.
In the case of CC1(C)C(C=C(Cl)Cl)C1C(=O)OC(C#N)c1cccc(Oc2ccccc2)c1 (stereo not drawn) [alphacypermethrin], the “Average Control” value ([3]; 0.08 ppm) is reported as 0%, the “Average Control” value ([3]; 2 ppm) is reported as 50% and the “Average Control” value ([4]; 0.04 ppm) is reported as 25%.
With CNC(=O)c1cc(C#N)cc(C)c1NC(=O)c1cc(Br)nn1-c1ncccc1Cl [cyazypyr] the “Average Control” value ([3]; 0.4 ppm) was 0%, the “Average Control” value ([4]; 0.4 ppm) was 0% and the “Average Control [%]” value [2, 8] was 50%. For the same molecule, the “Average Control [%]” value [5, 6] was 0%.
For CC(C)(C)c1ccc(CSc2cnn(C(C)(C)C)c(=O)c2Cl)cc1 [pyridaben], the “Average Control” value ([4]; 8 ppm) was 50%, the “Average Control [%]” value [2, 9] was 25% and the “Average Control [%]” value [5, 9] was 0%.
For O=[N+]([O-])NC1=NCCN1Cc1ccc(Cl)nc1 [imidacloprid], the “Average Control” value ([3]; 0.016 ppm) was 0%, the “Average Control” value ([3]; 2 ppm) was 50% and the “Average Control [%]” value ([1]; 0.4 ppm in aphid diet) was 50%.
For Cc1cc(C)cc(CC(N=C2NCCS2)c2cccc3c2OCC3)c1 (stereo not drawn) [compound C.I-47], the “Average Control” value ([3]; 0.16 ppm) was 0%, the “Average Control” value ([3]; 0.8 ppm) was 50% and the “Average Control [%]” value ([1]; 0.8 ppm in aphid diet) was 0%. The “Average Control [%]” value [1, 7] was 25% and 50% and the “Average Control [%]” value ([5]; 4 ppm sprayed onto insect diet, egg and larval mortality) was 0%.
With CN1COCN(Cc2cnc(Cl)s2)/C1=N\[N+](=O)[O-] [thiamethoxam] the “Average Control” value ([4]; 2 ppm) was 25% and the “Average Control [%]” value [2, 8] was 25%.
Cc1cc(C)cc(CC(NC2=NCCS2)c2cccc3c2CCC3)c1 (stereo not drawn) showed a melting point of 120 to 124 °C.
With Cc1cc(C)cc(CC(N=C2NCCS2)c2cccc3c2OCCO3)c1 (stereo not drawn) [compound C.I-27] the “Average Control” value ([3]; 0.16 ppm) was 0%, the “Average Control [%]” value ([1]; 0.16 ppm in aphid diet) was 0% and the “Average Control [%]” value [1, 7] was 0%. For the same molecule, the “Average Control [%]” value ([1]; 20 ppm in aphid diet) was 0%, the “Average Control” value ([4]; 0.16 ppm) was 0% and the “Average Control” value ([4]; 0.8 ppm) was 0%. For the same molecule, the “Average Control” value ([4]; 20 ppm) was 0%, the “Average Control” value ([4]; 100 ppm) was 0% and the “Average Control [%]” value ([2]; 0.16 ppm sprayed onto insect diet) was 0%. The “Average Control [%]” value ([2]; 20 ppm sprayed onto insect diet) was 0%, the “Average Control [%]” value ([2]; 100 ppm sprayed onto insect diet, egg and larval mortality) was 0% and the “Average Control [%]” value [5, 10] was 0%.
In the case of CNC(=O)c1cc(Cl)cc(C)c1NC(=O)c1cc(Br)nn1-c1ncccc1Cl [rynaxypyr], the “Average Control” value ([3]; 0.4 ppm) is reported as 0%.
For N#CCNC(=O)c1cnccc1C(F)(F)F [flonicamid], the “Average Control” value ([3]; 0.8 ppm) was 0%, the “Average Control [%]” value [1, 7] was 0% and the “Average Control” value ([4]; 100 ppm) was 0%. The “Average Control [%]” value [5, 10] was 0%.
Molecule Cc1cc(C)cc(CC(NC2=NCCS2)c2cccc3cccnc23)c1 (stereo not drawn) has a melting point of 95 to 96 °C.
